Assays:
[1] = biological target: monoclonal antibody from hybridoma 1C1 H2 A5; assay: Competitive ELISA of platinum compounds for binding to 1C1 H2 A5 monoclonal antibody; design: species or system mouse; conditions: for concentration of agent which decreased the antibody binding to 50% of control: MOAB 1C1 H2 A5, immobilized DACH Pt complex in microtiter wells
Procedure: A DACH Pt complex was immobilized on the surface of microtiter wells.
A DACH Pt complex was immobilized on the surface of microtiter wells, to which MOAB binding was measured.
A competitive ELISA assay using monoclonal antibody specific for platinum (II) complex was performed. Monoclonal antibody from hybridoma 1C1 H2 A5 was added to microtiter wells having an immobilized DACH Pt complex. The MOAB was added either with no free platinum complex (control) or with increasing amounts of free MIDP platinum complex. Additionally, three compounds (designated A, B and C), whose identities were best unknown at that time, were added in parallel to the MIDP competition study. As shown in FIG. 10 the competition of compound A was quite similar to that of MIDP. Compound B (FIG. 11) was less similar to MIDP and compound C (FIG. 12) was least like MIDP although still being inhibitory of MOAB binding. The concentration of each agent which decreased the antibody binding to 50% of control was: MIDP=lug; A=2ug; B=4ug and C=200ug.

[2] = system: B16 melanoma; conditions: mice, multi-dose administration; cited from earlier work
[3] = system: L1210 leukemia; conditions: mice, multi-dose administration; cited from earlier work
[4] = system: cells resistant to cisplatin; conditions: cited from earlier work
[5] = in vivo; cited from earlier work
[6] = system: human breast carcinoma cells (MCF-7); assay: MTT assay; cytotoxicity on MCF-7 breast carcinoma cells; assay type: cell-based; conditions: MCF-7, 72 hrs
Procedure: Eight thousand MCF-7 cells were seeded per well and an MTT dye viability test performed.
In order to determine whether the MIDP/MOAB complex retained antiproliferative activity against cells in culture, the antibody (2 mg) was incubated with 200 ug of MIDP platinum complex for 24 hrs. The MOAB/MIDP solution was then dialyzed for 4 hrs at 4° C. against phosphate-buffered saline (PBS). The dialysate was then analyzed for total platinum by atomic absorption spectrometry. The monoclonal antibody/MIDP complex was then added to human breast carcinoma cells (MCF-7) in concentrations between 0.01 and 10 ug Pt/ml. As a control on the same plates, MIDP was also added at equal platinum concentrations. At 72 hrs after treatment, the wells were assessed for viable cells by MTT assay.
**Cell survival was determined using the tetrazolium dyebinding method
(MTT) which dye reacts only with living cells.

amount needed to compete at a level with MIDP ([1]; relative to MIDP) | Structure (SMILES) | concentration of agent which decreased the antibody binding to 50% of control [1] [µg] | binding to the antibody relative to compound C ([1]; relative to compound C) | treatment of B16 melanoma [2] | treatment of L1210 leukemia [3] | cross-resistance [4] | renal toxicity [5] | Percent of Control Cell survival ([6]; MIDP concentration 0.019 ug/ml) [%] | Percent of Control Cell survival ([6]; MIDP concentration 0.039 ug/ml) [%] | Percent of Control Cell survival ([6]; MIDP concentration 0.078 ug/ml) [%] | Percent of Control Cell survival ([6]; MIDP concentration 0.156 ug/ml) [%] | Percent of Control Cell survival ([6]; MIDP concentration 0.312 ug/ml) [%] | Percent of Control Cell survival ([6]; MIDP concentration 0.625 ug/ml) [%] | Percent of Control Cell survival ([6]; MIDP concentration 1.25 ug/ml) [%] | Percent of Control Cell survival ([6]; MIDP concentration 2.5 ug/ml) [%] | Percent of Control Cell survival ([6]; MIDP concentration 5 ug/ml) [%] | Percent of Control Cell survival ([6]; MIDP concentration 10 ug/ml) [%] | concentration required for 50% inhibition of cell growth ([6]; MTT, platinum concentration) [µg/mL]
– | NC1CCCCC1N.O=C([O-])C1(C(=O)[O-])CCC1.[Pt+2] [Compound B, DACH Pt(II) 1,1-dicarboxylatocyclobutane] | 4 | about 50 fold | – | – | – | – | – | – | – | – | – | – | – | – | – | – | –
100-200 times | N.N.O=C([O-])C1(C(=O)[O-])CCC1.[Pt+2] [Compound C, diamine Pt(II) 1,1-dicarboxylatocyclobutane] | 200 | – | – | – | – | – | – | – | – | – | – | – | – | – | – | – | –
– | CN(CC(=O)[O-])CC(=O)[O-].NC1CCCCC1N.[Pt+2] [MIDP, methylimino-diacetato-1,2-diaminocyclohexane platinum (II)] | 2 | – | curative | curative | not to display cross-resistance | does not induce renal toxicity | 86.9 | 84.3 | 72.4 | 45.5 | 32.3 | 17.0 | 18.5 | 15.2 | 10.8 | 8.3 | 0.15

From US5053226A, “Monoclonal antibodies binding platinum complexes” (Board of Regents, The University of Texas System, priority 1987, dated 1991)
